Measured values published in patent publication US10723695B2, “Microbiocidal phenylamidine derivatives” (SYNGENTA PARTICIPATIONS AG, priority 2015, dated 2020).

What was measured:
Assay type in all cases: in vivo
[1] = tested on: Puccinia recondita f. sp. tritici; experiment: Puccinia recondita f. sp. tritici / wheat / leaf disc curative (brown rust); settings: foliar, 24 h, wheat leaf segments cv. Kanzler, curative (applied 1 day after inoculation), compared to untreated control leaf disks, read-out: disease control
Protocol: Puccinia recondita f. sp. tritici/Wheat/Leaf Disc Curative (Brown Rust) Wheat leaf segments cv. Kanzler are placed on agar in multiwell plates (24-well format). The leaf segments are inoculated with a spore suspension of the fungus. Plates were stored in darkness at 19° C. and 75% rh. The formulated test compound diluted in water was applied 1 day after inoculation.

[2] = tested on: Puccinia recondita f. sp. tritici; experiment: Puccinia recondita f. sp. tritici / wheat / leaf disc preventative (brown rust); settings: foliar, wheat leaf segments cv. Kanzler, compared to untreated control leaf disks, read-out: disease control
Protocol: Puccinia recondita f. sp. tritici/Wheat/Leaf Disc Preventative (Brown Rust) Wheat leaf segments cv. Kanzler were placed on agar in multiwell plates (24-well format) and sprayed with the formulated test compound diluted in water. The leaf disks were inoculated with a spore suspension of the fungus 1 day after application. The inoculated leaf segments were incubated at 19° C. and 75% rh under a light regime of 12 h light/12 h darkness in a climate cabinet and the activity of a compound was assessed as percent disease control compared to untreated when an appropriate level of disease damage appears in untreated check leaf segments (7-9 days after application).

[3] = tested on: Blumeria graminis f. sp. tritici (Erysiphe graminis f. sp. tritici); experiment: Blumeria graminis f. sp. tritici / wheat / leaf disc preventative (powdery mildew on wheat); settings: foliar, wheat leaf segments cv. Kanzler, compared to untreated control leaf disks, read-out: disease control
Description: Blumeria graminis f. sp. tritici (Erysiphe graminis f. sp. tritici)/Wheat/Leaf Disc Preventative (Powdery Mildew on Wheat) Wheat leaf segments cv. Kanzler were placed on agar in a multiwell plate (24-well format) and sprayed with the formulated test compound diluted in water. The leaf disks were inoculated by shaking powdery mildew infected plants above the test plates 1 day after application.

Phakopsora pachyrhizi = Phakopsora pachyrhizi / soybean / leaf disk preventative (soybean rust); settings: foliar, soybean leaf disks, compared to untreated control leaf disks, read-out: disease control
Protocol: Phakopsora pachyrhizi/Soybean/Leaf Disk Preventative (Soybean Rust) Four-week old soybean plants are sprayed in a spray chamber with the formulated test compound diluted in water. Leaf disks are cut from treated plants and placed on agar into 24-well plates one day after application. Leaf disks are inoculated by spraying them with a spore suspension on their lower leaf surface. After an incubation period in a climate cabinet of 24-36 hours in darkness at 20° C. and 75% rh, the leaf disks are then kept at 20° C. with 12 h light/day and 75% rh. The percentage leaf disk area covered by disease is assessed when an appropriate level of disease appears on untreated check plants (12-14 days after application).

Measured: pest or weed control at 200 ppm

CCN(C)/C=N/c1cc(OC)c([C@@](O)(c2ccccc2)C(F)(F)F)cc1C [Compound E1.015]
≥ 80%: all assays above

CCN(C)/C=N/c1cc(OC)c(C(O)(c2ccccc2OC)C(F)(F)F)cc1C (centres unmarked) [Compound E1.030]
≥ 80%: all assays above

CCCCC(O)(c1cc(C)c(/N=C/N(C)C2CC2)cc1OC)C(F)(F)F (centres unmarked) [Compound E1.049]
≥ 80%: all assays above

CCN(C)/C=N/c1cc(OC)c(C(O)(C2CCCC2)C(F)(F)F)cc1C (centres unmarked) [Compound E1.050]
≥ 80%: all assays above

CCN(C)/C=N/c1cc(OC)c(C(O)(CC(C)C)C(F)(F)F)cc1C (centres unmarked) [Compound E1.051]
≥ 80%: all assays above

CCCCC(O)(c1cc(C)c(/N=C/N(C)C(C)C)cc1OC)C(F)(F)F (centres unmarked) [Compound E1.053]
≥ 80%: all assays above

CCN(C)/C=N/c1cc(OC)c(C(O)(C(C)C)C(F)(F)F)cc1C (centres unmarked) [Compound E1.054, N-ethyl-N′-[4-[1-hydroxy-2-methyl-1-(trifluoromethyl)propyl]-5-methoxy-2-methyl-phenyl]-N-methyl-formamidine]
≥ 80%: all assays above

CCN(C)/C=N/c1cc(OC)c(C(O)(C2CCC(C)(C)CC2)C(F)(F)F)cc1C (centres unmarked) [Compound E1.061]
≥ 80%: all assays above

CCN(C)/C=N/c1cc(OC)c(C(O)(C2CCC(C)CC2)C(F)(F)F)cc1C (centres unmarked) [Compound E1.062]
≥ 80%: all assays above

CCCCCC(O)(c1cc(C)c(/N=C/N(C)CC)cc1OC)C(F)(F)F (centres unmarked) [Compound E1.065]
≥ 80%: all assays above

CCN(C)/C=N/c1cc(OC)c(C(O)(CC(C)(C)C)C(F)(F)F)cc1C (centres unmarked) [Compound E1.066]
≥ 80%: all assays above

CCN(C)/C=N/c1cc(OC)c(C(O)(CCC(C)C)C(F)(F)F)cc1C (centres unmarked) [Compound E1.068]
≥ 80%: all assays above

CCN(C)/C=N/c1cc(OC)c(C(O)(C2CCC2)C(F)(F)F)cc1C (centres unmarked) [Compound E1.069]
≥ 80%: all assays above

C=C(C)CC(O)(c1cc(C)c(/N=C/N(C)CC)cc1OC)C(F)(F)F (centres unmarked) [Compound E1.075]
≥ 80%: all assays above

CCN(C)/C=N/c1cc(OC)c(C(O)(C=C(C)C)C(F)(F)F)cc1C (centres unmarked) [Compound E1.076]
≥ 80%: all assays above

C=CC(O)(c1cc(C)c(/N=C/N(C)CC)cc1OC)C(F)(F)F (centres unmarked) [Compound E1.077]
≥ 80%: all assays above

C=C(C)C(O)(c1cc(C)c(/N=C/N(C)CC)cc1OC)C(F)(F)F (centres unmarked) [Compound E1.078]
≥ 80%: all assays above

C#CCC(O)(c1cc(C)c(/N=C/N(C)CC)cc1OC)C(F)(F)F (centres unmarked) [Compound E1.083]
≥ 80%: all assays above

CCN(C)/C=N/c1cc(OC)c(C(O)(Cc2ccccc2)C(F)(F)F)cc1C (centres unmarked) [Compound E1.086]
≥ 80%: all assays above

CCN(C)/C=N/c1cc(OC)c(C(O)(Cc2ccc(C)cc2)C(F)(F)F)cc1C (centres unmarked) [Compound E1.087]
≥ 80%: all assays above

CCN(C)/C=N/c1cc(OC)c(C(O)(Cn2ncc3ccccc32)C(F)(F)F)cc1C (centres unmarked) [Compound E1.093]
≥ 80%: all assays above

CCN(C)/C=N/c1cc(OC)c(C(O)(Cn2nc(C)c(C)c2C)C(F)(F)F)cc1C (centres unmarked) [Compound E1.095]
≥ 80%: all assays above

CCN(C)/C=N/c1cc(OC)c(C(O)(Cc2ccnc(F)c2)C(F)(F)F)cc1C (centres unmarked) [Compound E1.101]
≥ 80%: all assays above

CCN(C)/C=N/c1cc(OC)c(C(O)(c2cc3ccccc3s2)C(F)(F)F)cc1C (centres unmarked) [Compound E1.103]
≥ 80%: all assays above

CCN(C)/C=N/c1cc(OC)c(C(O)(c2ccc(C)s2)C(F)(F)F)cc1C (centres unmarked) [Compound E1.104]
≥ 80%: all assays above

CCN(C)/C=N/c1cc(OC)c(C(O)(c2cccs2)C(F)(F)F)cc1C (centres unmarked) [Compound E1.105]
≥ 80%: all assays above

CCN(C)/C=N/c1cc(OC)c(C(O)(c2cccc(Cl)n2)C(F)(F)F)cc1C (centres unmarked) [Compound E1.106]
≥ 80%: all assays above

CCN(C)/C=N/c1cc(OC)c(C(O)(c2cccnc2OC)C(F)(F)F)cc1C (centres unmarked) [Compound E1.112]
≥ 80%: all assays above

CCCCC(O)(c1cc(Cl)c(/N=C/N(C)CC)cc1OC)C(F)(F)F (centres unmarked) [Compound E1.117]
≥ 80%: all assays above

CCN(C)/C=N/c1cc(OC)c(C(O)C(F)(F)Cl)cc1C (centres unmarked) [Compound E1.118]
≥ 80%: all assays above

CCN(C)/C=N/c1cc(OC)c(C(O)(C(C)C)C(F)(F)Cl)cc1C (centres unmarked) [Compound E1.119]
≥ 80%: all assays above

CCN(C)/C=N/c1cc(OC)c(C(O)(C2CC2)C(F)(F)Cl)cc1C (centres unmarked) [Compound E1.120]
≥ 80%: all assays above

C=CCC(O)(c1cc(C)c(/N=C/N(C)CC)cc1OC)C(F)(F)Cl (centres unmarked) [Compound E1.121]
≥ 80%: all assays above

CCN(C)/C=N/c1cc(OC)c(C(O)(c2ccccc2)C(F)(F)Cl)cc1C (centres unmarked) [Compound E1.122]
≥ 80%: all assays above

CCN(C)/C=N/c1cc(OC)c(C(O)c2ccccc2)cc1C (centres unmarked) [Compound E1.123]
≥ 80%: all assays above
